Measured values published in US12465578B2, “Substituted alpha-ethyl phenylalkylamines” (Alexander Shulgin Research Institute, Inc., priority 2021, dated 2025).

Test: In vitro metabolic stability: percent of compound remaining in human liver microsomes
Type: in vitro ADME
Settings: for Percent of Compound Remaining Over Time / Dunnett's Multiple Comparison Test Mean Diff. (percent remaining, 2C-B minus compound): human liver microsomes; for rate of metabolism compared with 2C-B: human liver microsomes, 15, 30, 45 and 60 minutes of incubation; for rate of metabolism compared with 2C-B / Dunnett's Multiple Comparison Test Mean Diff. (percent remaining, 2C-B minus compound): 2C-B as control drug; for Dunnett's Multiple Comparison Test Mean Diff. (percent remaining, 2C-B minus compound): one-way ANOVA with Dunnett's post-test
Description: A high-throughput assay is used to determine metabolic stability of disclosed compounds and undeuterated analogs thereof in various matrices, including human liver microsomes, using LCMS analysis to quantify the percent compound remaining after incubation. Briefly, the disclosed compound is mixed with liver microsomes and activated. Following this incubation, acetonitrile is added to terminate the reaction. Then, the samples are centrifuged and the supernatant is dried. The residue is reconstituted and analyzed using liquid chromatography-mass spectrometry. Pharmacokinetic parameters are calculated using a noncompartmental model. The half-life (t1/2) is estimated from the slope of the initial linear range of the logarithmic curve of compound remaining (%) versus time, assuming first order kinetics.
In one such assay of metabolic stability, percent of compound remaining was determined in human liver microsomes after 15, 30, 45, and 60 minutes of incubation, for 2C-B, 2C-B-2-OCD3 (compound I-B-31), and 2C-B-5-OCD3 (compound I-A-31).

Structure (SMILES)	Percent of Compound Remaining Over Time (0 minutes of incubation) [%]	rate of metabolism compared with 2C-B	Percent of Compound Remaining Over Time (15 minutes of incubation) [%]	Percent of Compound Remaining Over Time (30 minutes of incubation) [%]	Percent of Compound Remaining Over Time (45 minutes of incubation) [%]	Percent of Compound Remaining Over Time (60 minutes of incubation) [%]	Dunnett's Multiple Comparison Test Mean Diff. (percent remaining, 2C-B minus compound)
Cl.[2H]C([2H])([2H])Oc1cc(CCN)c(OC)cc1Br [Compound 2C-B-5-OCD3, 2-(4-bromo-2-methoxy-5-(methoxy-d3)phenyl)ethan-1-amine hydrochloride]	100.0000	metabolized more quickly than 2C-B	96.2535	90.6402	90.7021	86.9011	14.31
COc1cc(CCN)c(OC)cc1Br [Compound 2C-B, 2-(4-bromo-2,5-dimethoxyphenyl)ethanamine, reference compound]	100.0000		104.3970	109.8740	105.1500	116.6050	
Cl.[2H]C([2H])([2H])Oc1cc(Br)c(OC)cc1CCN [Compound 2C-B-2-OCD3, 2-(4-bromo-5-methoxy-2-(methoxy-d3)phenyl)ethan-1-amine hydrochloride]	100.0000	metabolized more quickly than 2C-B	95.8357	91.9169	98.7307	91.6972	11.57
